We go through 4 compounds from patent US20120022121A1, “INDOLES, DERIVATIVES AND ANALOGS THEREOF AND USES THEREFOR” (priority 2007, published 2012).

The test system of one data set is PC-3. The data set can be described thus: Growth inhibition assay (SRB, 96 h). To be noted: Homo sapiens, PC-3, 96 h. The class given is cell-based, human. The source says:
(§1) MTT (3-(4,5-dimethylthiazol-2-yl)-2,5-diphenyltetrazolium bromide) assay was also used for the leukemia cell lines. […] Cells were stained with SRB solution or MTT solution.

Data set [1] relates to HT-29. Put plainly: Growth inhibition assay (SRB, 96 h). The format is cell-based. The note with it: Homo sapiens, HT-29, 96 h.
Text: as §1

The test system of data set [2] is MCF-7. Put plainly: Growth inhibition assay (SRB, 96 h). The format is cell-based. The note with it: Homo sapiens, MCF7; MCF-7, 96 h.
Text: as §1

For another data set, the system named is TSU-Pr1. Put plainly: Growth inhibition assay (SRB, 96 h). The class given is cell-based. The note with it: Homo sapiens, TSU-Pr1, 96 h.
Text: as §1

The subject of data set [3] is K562. Put plainly: Growth inhibition assay (MTT, 96 h). The class given is cell-based. To be noted: Homo sapiens, K562 (parental).
Text: as §1

For data set [4], the system named is K562/Dox. The data set can be described thus: Growth inhibition assay (MTT, 96 h). The format is cell-based, human.
Text: as §1

The subject of a further data set is HEK293-pcDNA3.1. Put plainly: Growth inhibition assay (96 h). The class given is cell-based, human. To be noted: HEK293-pcDNA3.1 (control for MRP).
Text: as §1

In another data set the test system is MES-SA/DX5. The data set can be described thus: Growth inhibition assay (96 h). The format is cell-based, human. To be noted: MES-SA/DX5 vs MES-SA (P-gp).
Text: as §1

The subject of the next data set is HEK293-MRP1. The data set can be described thus: Growth inhibition assay (96 h). The format is cell-based, human. The note with it: for resistance factor (ratio of IC50 resistant subline to parental cell line): HEK293-MRP1 vs HEK293-pcDNA3.1.
Data set [5] concerns MRP1 (over-expressed in the cells). The data set can be described thus: Growth inhibition assay (96 h). The format is cell-based, human. The note with it: human, HEK293 cells over-expressing MRP1 (HEK293-MRP1); HEK293-MRP1, MRP1 over-expressed, 96 h.
For the next data set, the system named is HEK293-MRP2. Put plainly: Growth inhibition assay (96 h). The format is cell-based, human. To be noted: for resistance factor (ratio of IC50 resistant subline to parental cell line): HEK293-MRP2 vs HEK293-pcDNA3.1.
Data set [6] deals with MRP2 (over-expressed in the cells). Put plainly: Growth inhibition assay (96 h). The class given is cell-based, human. To be noted: human, HEK293 cells over-expressing MRP2 (HEK293-MRP2); HEK293-MRP2, MRP2 over-expressed, 96 h.
The test system of data set [7] is human cancer cell lines from prostate, colon, breast, and bladder. Put plainly: Cell proliferation by SRB assay, panel of cell lines. The format is cell-based. To be noted: read-out: IC50 values, range over cell lines. Here is the method: as §1
Cell proliferation was measured by SRB assay.

Data set [8] relates to PC-3 cells. Put plainly: Cell cycle analysis (PI staining, FACS). The format is cell-based, human. The note with it: Homo sapiens; PC-3, 24 h, 0.1 nM to 1 μM; read-out: EC50 of cell cycle arrest in G2M phase. Here is the method:
Cell cycle distribution was determined by propidium iodide (PI) staining. Treated cells were washed with PBS and fixed with 70% ice-cold ethanol overnight. Fixed cells were then stained with 20 μg/mL of PI in the presence of RNase A (300 μg/mL) at 37° C. for 30 min. Cell cycle distribution was analyzed by fluorescence-activated cell sorting (FACS).

The subject of data set [9] is PC-3 cells. The data set can be described thus: Indirect immunofluorescence microscopy of microtubules. To be noted: 24 h, anti-α-tubulin-FITC. The format is cell-based, human. The method, then:
PC-3 cells were plated on poly-D-lysine coated glass cover slips in 6-well plates (5×10^4 cells/well) the day before treatment. After cells were incubated with cytotoxic agents at 37° C. for 24 h, cells were fixed on the cover slips with 4% formaldehyde in PBS for 10 min and permeabilized by 2% Triton-X in PBS for 5 min at rt. Fixed cells were blocked with 3% bovine serum albumin in TBST for 30 min and incubated with anti-α-tubulin-FITC antibody (1:100 dilution) at 4° C. overnight. Cover slips were mounted on slides using mounting medium with 4′,6-diamidino-2-phenylindole (DAPI), followed by microscopic analysis with a Zeiss Axioplan 2 fluorescent microscope (Carl Zeiss, Thornwood, N.Y.). Images were acquired with a Zeiss Axiocam HRc, using Zeiss AxioVision.

A further data set relates to PC-3 xenografts. The data set can be described thus: In vivo antitumor efficacy, PC-3 xenograft. To be noted: 5 mg/kg.
Another data set has as its system MES-SA xenografts. The data set can be described thus: In vivo antitumor efficacy, MES-SA xenograft. Also on record: species or system mice. The note with it: 5 mg/kg, q2d, i.p. The method, then:
(§2) The control group was treated with vehicle (10% DMSO in PEG300).

The next data set concerns MES-SA/DX5 xenografts. Put plainly: In vivo antitumor efficacy, MES-SA/DX5 xenograft. The note with it: MES-SA/DX5 xenograft, 5 mg/kg, q2d, i.p. Here is the method:
as §2

The test system of data set [10] is K562/Dox. Put plainly: Cell viability MTT assay, 96 h. The note with it: Homo sapiens, doxorubicin-resistant. The class given is cell-based. Here is the method: (§3) Cells were seeded in 96-well plates and incubated with different concentrations of compound 13, 68 or other anticancer drugs for 96 h. Cell viability was quantitated by MTT assay. […] Table 4 is a comparison of the IC50 of compounds 13, 68 and other anticancer drugs in the K562 and doxorubicin-resistant K562/DOX cell lines.

The subject of data set [11] is K562. Put plainly: Cell viability MTT assay, 96 h. The format is cell-based. To be noted: Homo sapiens. Here is the method:
as §3

In another data set the test system is HEK293-pcDNA3-10. Put plainly: Growth inhibition assay (96 h). The format is cell-based, human. To be noted: HEK293-pcDNA3-10 (control for BCRP).
Text: as §1

The subject of another data set is HEK293-482R2. Put plainly: Growth inhibition assay (96 h). The class given is cell-based, human. The note with it: HEK293-482R2, BCRP over-expressed, 96 h.
The test system of a further data set is PC-3 xenograft. The data set can be described thus: Antitumor activity in PC-3 xenograft. The class given is in vivo, Balb/c mice. The note with it: 15 mg/kg/d for 4 days. Here is the method: PC-3 tumor cells (2×10^6 cells) were suspended in saline and injected S.C. in both flanks of recipient mice (n=15). Tumor size was measured every other day and volume calculated as V=π/6*(length)x(width)^2 (75). […] Tumor growth and body weight was monitored every other day for the remainder of the study.

For data set [12], the system named is HT-29. The note with it: HT-29 cells, literature value (Rose 1995); cited from earlier work.
The test system of data set [13] is MCF-7. To be noted: MCF-7 cells, literature value (Rose 1995); cited from earlier work.

Like-named read-outs stand apart in the source and are kept apart here.

Regarding `CC(=O)O[C@@]12CO[C@@H]1C[C@H](O)[C@@]1(C)C(=O)[C@H](O)C3=C(C)[C@@H](OC(=O)[C@H](O)[C@@H](NC(=O)OC(C)(C)C)c4ccccc4)C[C@@](O)([C@@H](OC(=O)c4ccccc4)[C@H]21)C3(C)C` [Docetaxel], the IC50 with PC-3 came to 6 nM; with HT-29 [1] it was 4.1 ± 0.2 nM; in the data set with MCF-7 [2] it was 3.8 ± 0.8 nM; in the data set with TSU-Pr1, 2.6 ± 0.9 nM; in the data set on K562 [3], 2.7 ± 1 nM; in the data set on K562/Dox [4] (Homo sapiens, K562/Dox, P-gp over-expressed, 96 h), 548 ± 76 nM. The IC50 in the data set on HEK293-pcDNA3.1 (Homo sapiens) is 4.4 ± 2 nM; in data set [7], 1.1 to 6.3 nM. The “resistance factor (ratio of IC50 resistant subline to parental cell line)” value in the data set on K562/Dox [4] (K562/Dox vs K562 (P-gp)) is given as “(203)”; with MES-SA/DX5, “(13)”; in the data set with HEK293-MRP1, “(7.2)”; with HEK293-MRP1 (listed as docetaxel) it was 7.2; with HEK293-MRP2 it was “(7.6)”; with HEK293-MRP2 (listed as docetaxel) it was 7.6. Further, the IC50 at 96 h in data set [5] was 31.3 ± 5 nM; in [6] it was 33.1 ± 4 nM. For the same compound, the EC50 in the data set on PC-3 cells [8] was determined as 14 nM. For the same compound, the “microtubule changes by immunofluorescence” value in the data set with PC-3 cells [9] is “stabilization of microtubules”. In the data set with PC-3 xenografts (PC-3 xenograft, 2 days/week), the “end of study survival rate” value is “less than 30%”. Moreover, the “mice survived after 3 weeks” value in the data set on PC-3 xenografts (male, nu/nu, mouse, in vivo, 3 weeks) amounted to 70%. For the same compound, the figures for the “TGI (tumor growth inhibition)” value in the data set with MES-SA xenografts and in the data set with MES-SA/DX5 xenografts were 54% and 9%, respectively.
As for `COc1cccc2c1C(=O)c1c(O)c3c(c(O)c1C2=O)C[C@@](O)(C(=O)CO)C[C@@H]3O[C@H]1C[C@H](N)[C@H](O)[C@H](C)O1` [Doxirubicin], the values for the IC50 with K562/Dox [10] and with K562 [11] were 859 ± 26.8 nM and 27.1 ± 5.5 nM, respectively.
Consider `CCc1c2c(nc3ccc(O)cc13)-c1cc3c(c(=O)n1C2)COC(=O)[C@]3(O)CC` [SN-38], for which the half-maximal inhibitory concentration (IC50) was determined as 2.9 ± 0.3 nM with HEK293-pcDNA3-10; 8.4 ± 1 nM with HEK293-pcDNA3.1; 17.7 ± 1 nM in the data set with HEK293-MRP1 (HEK293-MRP1, MRP1 over-expressed, 96 h); 12.4 ± 1 nM with HEK293-MRP2 (HEK293-MRP2, MRP2 over-expressed, 96 h); 94.3 ± 20 nM in the data set with HEK293-482R2.
For the compound `CC(=O)O[C@H]1C(=O)[C@@]2(C)[C@H]([C@H](OC(=O)c3ccccc3)[C@]3(O)C[C@H](OC(=O)[C@H](O)[C@@H](NC(=O)c4ccccc4)c4ccccc4)C(C)=C1C3(C)C)[C@]1(OC(C)=O)CO[C@@H]1C[C@@H]2O` [Taxol], the IC50 is 1480 ± 480 nM in the data set with K562/Dox [10], 12.2 ± 0.2 nM in the data set on K562 [11], approximately 2.5 nM with HT-29 [12] and approximately 2.5 nM with MCF-7 [13]. In the data set on PC-3 xenograft, the PC-3 xenograft growth entry is reported as “potently suppressed”. Moreover, the body weight result in the data set with PC-3 xenograft is “significant decreases in body weight”.
